# Source: patent publication US8247211B2, “Glycopeptide antibiotics” (American Cyanamid Company, priority 2001, dated 2012)
# Columns and labels:
# Test in all cases: In vitro antibacterial evaluation: minimum inhibitory concentration (MIC), broth dilution method
# Type in all cases: cell-based
# Conditions in all cases: 18 hours at 35° C.
# Enterococcus sp. = system: Enterococcus sp.
# In short: (§1)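 NCCLS M7-A2 broth dilution with Mueller-Hinton II, testing 64-0.06 μg/mL antibiotic against 5×10^5 CFU/mL inocula. Test strains include recent methicillin-, penicillin- or vancomycin-resistant clinical isolates. MIC is the lowest concentration preventing growth.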
# Escherichia coli = system: Escherichia coli
# In short: as §1
# Staphylococcus sp. = system: Staphylococcus sp.
# In short: as §1
# Streptococcus sp. = system: Streptococcus sp.
# In short: as §1
substance,measurement,setting,value
β-O-[(Pentylamino)carbonyl]-cyclo[glycyl-β-methylphenylalanyl-O-(4-O-hexopyranosylhexopyranosyl)tyrosyl-3-(2-iminoimidazolidin-4-yl)seryl-3-(3-hexopyranosyl-2-iminoimidazolidin-4-yl)serylseryl] [Example 251a],MIC Enterococcus avium (GC 4558),Enterococcus sp.; Enterococcus avium (GC 4558),>64 µg/mL
same,MIC Enterococcus faecalis (ATCC 29212),Enterococcus sp.; Enterococcus faecalis (ATCC 29212),>64 µg/mL
same,MIC Enterococcus faecalis (GC 2242),Enterococcus sp.; Enterococcus faecalis (GC 2242),>64 µg/mL
same,MIC Enterococcus faecalis (GC 4552),Enterococcus sp.; Enterococcus faecalis (GC 4552),>64 µg/mL
same,MIC Enterococcus faecalis (GC 4553),Enterococcus sp.; Enterococcus faecalis (GC 4553),>64 µg/mL
same,MIC Enterococcus faecalis (GC 4554),Enterococcus sp.; Enterococcus faecalis (GC 4554),>64 µg/mL
same,MIC Enterococcus faecium (GC 2243),Enterococcus sp.; Enterococcus faecium (GC 2243),>64 µg/mL
same,MIC Enterococcus faecium (GC 4556),Enterococcus sp.; Enterococcus faecium (GC 4556),>64 µg/mL
same,MIC Enterococcus faecium (GC 4557),Enterococcus sp.; Enterococcus faecium (GC 4557),16 µg/mL
same,MIC Enterococcus faecalis (ATCC 29212),"Enterococcus sp.; broth dilution, strain ATCC 29212",>64 µg/mL
same,MIC Enterococcus faecalis (GC 2242),"Enterococcus sp.; broth dilution, strain GC 2242",>64 µg/mL
same,MIC Enterococcus faecium (GC 2243),"Enterococcus sp.; broth dilution, strain GC 2243",>64 µg/mL
same,MIC Enterococcus faecalis (GC 4552),"Enterococcus sp.; broth dilution, strain GC 4552",>64 µg/mL
same,MIC Enterococcus faecalis (GC 4553),"Enterococcus sp.; broth dilution, strain GC 4553",>64 µg/mL
same,MIC Enterococcus faecalis (GC 4554),"Enterococcus sp.; broth dilution, strain GC 4554",>64 µg/mL
same,MIC Enterococcus faecium (GC 4556),"Enterococcus sp.; broth dilution, strain GC 4556",>64 µg/mL
same,MIC Enterococcus faecium (GC 4557),"Enterococcus sp.; broth dilution, strain GC 4557",16 µg/mL
same,MIC Enterococcus avium (GC 4558),"Enterococcus sp.; broth dilution, strain GC 4558",>64 µg/mL
same,MIC Escherichia coli (ATCC 25922),Escherichia coli; Escherichia coli (ATCC 25922),>64 µg/mL
same,MIC Escherichia coli (GC 4559),Escherichia coli; Escherichia coli (GC 4559),>64 µg/mL
same,MIC Escherichia coli (GC 4560),Escherichia coli; Escherichia coli (GC 4560),8 µg/mL
same,MIC Coagulase Negative Staphylococcus (GC 4547),Staphylococcus sp.; Coagulase Negative Staphylococcus (GC 4547),64 µg/mL
same,MIC Coagulase Negative Staphylococcus (GC 4548),Staphylococcus sp.; Coagulase Negative Staphylococcus (GC 4548),64 µg/mL
same,MIC Coagulase Negative Staphylococcus (GC 4549),Staphylococcus sp.; Coagulase Negative Staphylococcus (GC 4549),32 µg/mL
same,MIC Coagulase Negative Staphylococcus (GC 4551),Staphylococcus sp.; Coagulase Negative Staphylococcus (GC 4551),>64 µg/mL
same,MIC Coagulase Negative Staphylococcus (ID-3941),Staphylococcus sp.; Coagulase Negative Staphylococcus (ID-3941),16 µg/mL
same,MIC Staphylococcus aureus (ATCC 29213),Staphylococcus sp.; Staphylococcus aureus (ATCC 29213),>64 µg/mL
same,MIC Staphylococcus aureus (GC 1131),Staphylococcus sp.; Staphylococcus aureus (GC 1131),>64 µg/mL
same,MIC Staphylococcus aureus (GC 4541),Staphylococcus sp.; Staphylococcus aureus (GC 4541),64 µg/mL
same,MIC Staphylococcus aureus (GC 4542),Staphylococcus sp.; Staphylococcus aureus (GC 4542),64 µg/mL
same,MIC Staphylococcus aureus (GC 4544),Staphylococcus sp.; Staphylococcus aureus (GC 4544),>64 µg/mL
same,MIC Staphylococcus aureus (GC 4545),Staphylococcus sp.; Staphylococcus aureus (GC 4545),64 µg/mL
same,MIC Staphylococcus aureus-SMITH (GC 4543),Staphylococcus sp.; Staphylococcus aureus-SMITH (GC 4543),64 µg/mL
same,MIC Staphylococcus haemolyticus (GC 4546),Staphylococcus sp.; Staphylococcus haemolyticus (GC 4546),64 µg/mL
same,MIC Staphylococcus aureus (ATCC 29213),"Staphylococcus sp.; broth dilution, strain ATCC 29213",>64 µg/mL
same,MIC Staphylococcus aureus (GC 1131),"Staphylococcus sp.; broth dilution, strain GC 1131",>64 µg/mL
same,MIC Staphylococcus aureus (GC 4541),"Staphylococcus sp.; broth dilution, strain GC 4541",64 µg/mL
same,MIC Staphylococcus aureus (GC 4542),"Staphylococcus sp.; broth dilution, strain GC 4542",64 µg/mL
same,MIC Staphylococcus aureus-SMITH (GC 4543),"Staphylococcus sp.; broth dilution, strain GC 4543",64 µg/mL
same,MIC Staphylococcus aureus (GC 4544),"Staphylococcus sp.; broth dilution, strain GC 4544",>64 µg/mL
same,MIC Staphylococcus aureus (GC 4545),"Staphylococcus sp.; broth dilution, strain GC 4545",64 µg/mL
same,MIC Staphylococcus haemolyticus (GC 4546),"Staphylococcus sp.; broth dilution, strain GC 4546",64 µg/mL
same,MIC Coagulase Negative Staphylococcus (GC 4547),"Staphylococcus sp.; broth dilution, strain GC 4547",64 µg/mL
same,MIC Coagulase Negative Staphylococcus (GC 4548),"Staphylococcus sp.; broth dilution, strain GC 4548",64 µg/mL
same,MIC Coagulase Negative Staphylococcus (GC 4549),"Staphylococcus sp.; broth dilution, strain GC 4549",32 µg/mL
same,MIC Coagulase Negative Staphylococcus (GC 4551),"Staphylococcus sp.; broth dilution, strain GC 4551",>64 µg/mL
same,MIC Coagulase Negative Staphylococcus (ID-3941),"Staphylococcus sp.; broth dilution, strain ID-3941",16 µg/mL
same,MIC Streptococcus agalactiae (GC 4564),Streptococcus sp.; Streptococcus agalactiae (GC 4564),32 µg/mL
same,MIC Streptococcus pneumoniae (GC 4565),Streptococcus sp.; Streptococcus pneumoniae (GC 4565),8 µg/mL
same,MIC Streptococcus pyogenes (ID-3187),Streptococcus sp.; Streptococcus pyogenes (ID-3187),16 µg/mL
same,MIC Streptococcus agalactiae (GC 4564),"Streptococcus sp.; broth dilution, strain GC 4564",32 µg/mL
same,MIC Streptococcus pneumoniae (GC 4565),"Streptococcus sp.; broth dilution, strain GC 4565",8 µg/mL
same,MIC Streptococcus pyogenes (ID-3187),"Streptococcus sp.; broth dilution, strain ID-3187",16 µg/mL
